# System: LPS induced TNF release
# Experiment: THP1 cell assay (LPS induced TNF release)
# Assay type: cell-based
# Settings: Homo sapiens, THP-1; THP1 cells, LPS induced TNF-α secretion, 3 h at 37° C.
# Description: Lipopolysaccharide-Activated THP1 Cell TNF Production Assay
# THP1 cells are resuspended in fresh THP1 media (RPMI 1640, 10% heat-inactivated FBS, 1XPGS, 1XNEAA, plus 30 μM OME) at a concentration of 1E6/mL. One hundred microliters of cells per well are plated in a polystyrene 96-well tissue culture. One microgram per mL of bacterial LPS is prepared in THP1 media and is transferred to the wells. Test compounds are dissolved in 100% DMSO and are serially diluted 3-fold in a polypropylene 96-well microtiter plate (drug plate). HI control and LO control wells contain only DMSO. One microliter of test compound from the drug plate followed by 10 μL of LPS are transferred to the cell plate. The treated cells are induced to synthesize and secrete TNF-α at 37° C. for 3 h. Forty microliters of conditioned media are transferred to a 96-well polypropylene plate containing 110 μL of ECL buffer (50 mM Tris-HCl pH 8.0, 100 mM NaCl, 0.05% Tween 20, 0.05% NaN3 and 1% FBS) supplemented with 0.44 nM MAB610 monoclonal Ab (R&D Systems), 0.34 nM ruthenylated AF210NA polyclonal Ab (R&D Systems) and 44 μg/mL sheep anti-mouse M280 Dynabeads (Dynal). After a 2 h incubation at RT with shaking, the reaction is read on the ECL M8 Instrument (IGEN Inc.). A low voltage is applied to the ruthenylated TNF-α immune complexes, which in the presence of TPA (the active component in Origlo), results in a cyclical redox reaction generating light at […]. The amount of secreted TNF-α in the presence of compound compared with that in the presence of DMSO vehicle alone (HI control) is calculated using the formula: % control (POC)=(cpd−average LO)/(average HI−average LO)*100. Data (consisting of POC and inhibitor concentration in μM) is fitted to a 4-parameter equation (y=A+((B−A)/(I+((x/C)ˆD))), where A is the minimum y (POC) value, B is the maximum y (POC), C is the x (cpd concentration) at the point of inflection and D is the slope factor) using a Levenburg-Marquardt non-linear regression algorithm.
row,SMILES,IC50 [µM]
1,"Cc1cc(N2CCCc3ccc(-c4ccccc4)nc32)nc(F)n1 [Example 59, 1-(2-Fluoro-6-methylpyrimidin-4-yl)-7-phenyl-1,2,3,4-tetrahydro-1,8-naphthyridine]",≤ 20
2,"CCOC(=O)c1cc2c(nc1-c1ccccc1)N(c1ccnc(NC(C)Cc3cccc(CO)c3)n1)CCC2 (stereo not shown) [Example 79, Ethyl 8-(2-(1-(3-(hydroxymethyl)phenyl)propan-2-ylamino)pyrimidin-4-yl)-2-phenyl-5,6,7,8-tetrahydro-1,8-naphthyridine-3-carboxylate]",≤ 20
3,"CNCCC(=O)N1CCC(Nc2nccc(N3CCCc4cnc(-c5ccccc5)cc43)n2)CC1 [Example 15, 3-(Methylamino)-1-(4(4-(7-phenyl-3,4-dihydro-1,6-naphthyridin-1(2H)-yl)-pyrimidin-2-ylamino)piperdin-1-yl)propan-1-one]",≤ 20
4,"c1ccc(-c2cnc3c(c2)N(c2ccnc(NC4CCNCC4)n2)CCC3)cc1 [Example 31, 4-(7-Phenyl-3,4-dihydro-1,5-naphthyridin-1(2H)-yl)-N-(piperidin-4-yl)pyrimidin-2-amine]",≤ 20
5,"CCOC(=O)c1cc2c(nc1-c1ccccc1)N(c1ccnc(N[C@H]3CC[C@H](N)CC3)n1)CCC2 [Example 75, Ethyl 8-(2-((1R,4R)-4-aminocyclohexylamino)pyrimidin-4-yl)-2-phenyl-5,6,7,8-tetrahydro-1,8-naphthyridine-3-carboxylate]",≤ 20
6,"C[C@@H](Cc1cccc([C@@H](C)N)c1)Nc1nccc(N2CCCc3cnc(-c4ccccc4)cc32)n1 [Example 10, N-((S)-1-(3-((R)-1-Aminoethyl)phenyl)propan-2-yl)-4-(7-phenyl-3,4-dihydro-1,6-naphthyridin-1(2H)-yl)pyrimidin-2-amine]",≤ 20
7,"CC(C)(C)OC(=O)N1CCC(Nc2nccc(N3CCCc4cnc(-c5ccccc5)cc43)n2)CC1 [Example 7, tert-Butyl 4-(4-(7-phenyl-3,4-dihydro-1,6-naphthyridin-1(2H)-yl)pyrimidin-2-ylamino)piperidine-1-carboxylate]",≤ 20
8,"O=C(C[C@@H](Cc1ccccc1)Nc1nccc(N2CCCc3cnc(-c4ccccc4)cc32)n1)N1CCNCC1 [Example 22, (R)-4-Phenyl-3-(4-(7-phenyl-3,4-dihydro-1,6-naphthyridin-1(2H)-yl)pyrimidin-2-ylamino)-1-(piperazin-1yl)butan-1-one]",≤ 20
9,"CC(Cc1cccc(CN)c1)Nc1nc(N2CCCc3ccc(-c4ccccc4)nc32)cc(C(F)(F)F)n1 (stereo not shown) [Example 58, N-(1-(3-(Aminomethyl)phenyl)propan-2-yl)-4-(7-phenyl-3,4-dihydro-1,8-naphthyridin-1(2H)-yl)-6-(trifluoromethyl)pyrimidin-2-amine]",≤ 20
10,"CC(=O)N1CCC(Nc2nccc(N3CCOc4cnc(-c5ccccc5)nc43)n2)CC1 [Example 107, 1-(4-(4-(2-Phenyl-6,7-dihydropyrimido[5,4-b][1,4]oxazin-8-yl)pyrimidin-2-yl-amino)piperidin-1-yl)ethanone]",≤ 20
11,"CC(C)NCC(C)(C)Nc1nccc(N2CCCc3cnc(-c4ccccc4)cc32)n1 [Example 43, N-(1-(Isopropylamino)-2-methylpropan-2-yl)-4-(7-phenyl-3,4-dihydro-1,6-naphthyridin-1(2H)-yl) pyrimidin-2-amine]",≤ 20
12,"CC(C)(O)c1cc2c(nc1-c1ccccc1)N(c1ccnc(N[C@H]3CC[C@H](N)CC3)n1)CCC2 [Example 78, 2-(8-(2-((1R,4R)-4-Aminocyclohexylamino)pyrimidin-4-yl)-2-phenyl-5,6,7,8-tetrahydro-1,8-naphthyridin-3-yl)propan-2-ol]",≤ 20
13,"CCOC(=O)c1cc2c(nc1-c1ccccc1)N(c1ccnc(NCCc3ccccc3)n1)CCC2 [Example 66, Ethyl 8-(2-(Phenethylamino)pyrimidin-4-yl)-2-phenyl-5,6,7,8-tetrahydro-1,8-naphthyridine-3-carboxylate]",≤ 20

# — patent publication US20060161001A1, “Substituted heterocyclic compounds and methods of use” (Amgen Inc., priority 2004, published 2006)
